Reference: patent US10364247B2, “Preparation and use of novel protein kinase inhibitors” (Ruijin Hospital Affiliated to Shanghai Jiao Tong University …, priority 2015, dated 2019)

Key:
Assay in all cases: KINOMEscan competition binding
[1] = target: HPK1 (Homo sapiens, UniProt Q92918); details: HPK1 (Entrez MAP4K1), read-out: Percent Control
Experimental: (§1) KINOMEscan™ is based on a competition binding assay that quantitatively measures the ability of a compound to compete with an immobilized, active-site directed ligand (Fabian et al. (2005) Nat. Biotechnol. 23, 329; Karaman et al. (2008) Nat. Biotechnol. 26, 127). The compound was screened at 10 μM, and results for primary screen binding interactions are reported as ‘% Ctrl’, where lower numbers indicate stronger hits. The results for kinases targets with a % Ctrl less than 30 can be seen in Table 2.

[2] = target: EPHB3 (Homo sapiens, UniProt P54753); details: read-out: Percent Control
Experimental: as §1

[3] = target: T1, EGFR(L858R) (Homo sapiens, UniProt P00533, L858R); details: read-out: Percent Control
T1 construct: purchased KINOMEscan (panel service)
Experimental: as §1

[4] = target: TIE2 (Homo sapiens, UniProt Q02763); details: TIE2 (Entrez TEK)
Experimental: as §1

[5] = target: T2, DDR2 (Homo sapiens, UniProt Q16832); details: read-out: Percent Control
T2 construct: purchased KINOMEscan (screening service)
Experimental: as §1

[6] = target: EPHA2 (Homo sapiens, UniProt P29317); details: read-out: Percent Control
Experimental: as §1

[7] = target: TNK2 (Homo sapiens, UniProt Q07912); details: read-out: Percent Control
Experimental: as §1

[8] = target: T3, ABL1(Y253F)-phosphorylated (Homo sapiens, UniProt P00519, Y253F); details: read-out: Percent Control
T3 construct: purchased KINOMEscan (panel service)
Experimental: as §1

[9] = target: ABL1(F317L)-phosphorylated (Homo sapiens, UniProt P00519, F317L); details: read-out: Percent Control
Experimental: as §1

[10] = target: T4, RET(V804M) (Homo sapiens, UniProt P07949, V804M); details: read-out: Percent Control
T4 construct: purchased KINOMEscan (panel service)
Experimental: as §1

[11] = target: T5, LYN (Homo sapiens, UniProt P07948); details: read-out: Percent Control
T5 construct: purchased KINOMEscan (panel service)
Experimental: as §1

[12] = target: EPHA5 (Homo sapiens, UniProt P54756); details: read-out: Percent Control
Experimental: as §1

[13] = target: EGFR(L747-S752del, P753S) (Homo sapiens, UniProt P00533, DEL747-752/P753S); details: read-out: Percent Control
Experimental: as §1

[14] = target: KIT(V559D, V654A) (Homo sapiens, UniProt P10721, V559D/V654A); details: read-out: Percent Control
Experimental: as §1

[15] = target: MAP4K5 (Homo sapiens, UniProt Q9Y4K4); details: read-out: Percent Control
Experimental: as §1

[16] = target: CSK (Homo sapiens, UniProt P41240); details: read-out: Percent Control
Experimental: as §1

[17] = target: SRMS (Homo sapiens, UniProt Q9H3Y6); details: read-out: Percent Control
Experimental: as §1

[18] = target: FLT4 (Homo sapiens, UniProt P35916); details: read-out: Percent Control
Experimental: as §1

[19] = target: EGFR(G719C) (Homo sapiens, UniProt P00533, G719C); details: read-out: Percent Control
Experimental: as §1

[20] = target: PFCDPK1(P. falciparum) (Plasmodium falciparum, UniProt P62344); details: PFCDPK1(P. falciparum) (Entrez CDPK1), read-out: Percent Control
Experimental: as §1

[21] = target: RET(M918T) (Homo sapiens, UniProt P07949, M918T); details: read-out: Percent Control
Experimental: as §1

[22] = system: FLT3(ITD); details: 10 μM
Experimental: as §1

[23] = target: T6, CSF1R (Homo sapiens, UniProt P07333); details: read-out: Percent Control
T6 construct: purchased KINOMEscan (panel service)
Experimental: as §1

[24] = target: TEC (Homo sapiens, UniProt P42680); details: read-out: Percent Control
Experimental: as §1

[25] = target: T7, p38-alpha (Homo sapiens, UniProt Q16539); details: p38-alpha (Entrez MAPK14), read-out: Percent Control
T7 construct: purchased KINOMEscan (panel service)
Experimental: as §1

[26] = target: MEK5 (Homo sapiens, UniProt Q13163); details: MEK5 (Entrez MAP2K5), read-out: Percent Control
Experimental: as §1

[27] = target: T8, FLT3(R834Q) (Homo sapiens, UniProt P36888, R834Q); details: read-out: Percent Control
T8 construct: purchased KINOMEscan (screening service)
Experimental: as §1

[28] = target: TIE1 (Homo sapiens, UniProt P35590); details: read-out: Percent Control
Experimental: as §1

[29] = target: BMX (Homo sapiens, UniProt P51813); details: read-out: Percent Control
Experimental: as §1

[30] = target: MAP4K2 (Homo sapiens, UniProt Q12851); details: read-out: Percent Control
Experimental: as §1

[31] = target: T9, EPHA8 (Homo sapiens, UniProt P29322); details: read-out: Percent Control
T9 construct: purchased KINOMEscan (panel service)
Experimental: as §1

[32] = target: T10, TRKB (Homo sapiens, UniProt Q16620); details: TRKB (Entrez NTRK2), read-out: Percent Control
T10 construct: purchased KINOMEscan (screening service)
Experimental: as §1

[33] = target: ERBB4 (Homo sapiens, UniProt Q15303); details: read-out: Percent Control
Experimental: as §1

[34] = target: ABL1(Q252H)-nonphosphorylated (Homo sapiens, UniProt P00519, Q252H); details: read-out: Percent Control
Experimental: as §1

[35] = target: T11, PIP5K2C (Homo sapiens, UniProt Q8TBX8); details: PIP5K2C (Entrez PIP4K2C), read-out: Percent Control
T11 construct: purchased KINOMEscan (screening service)
Experimental: as §1

[36] = target: T12, KIT (Homo sapiens, UniProt P10721); details: read-out: Percent Control
T12 construct: purchased KINOMEscan (panel service)
Experimental: as §1

[37] = target: T13, PIP5K1C (Homo sapiens, UniProt O60331); details: read-out: Percent Control
T13 construct: purchased KINOMEscan (screening service)
Experimental: as §1

T2 sequence (Q16832 22-855): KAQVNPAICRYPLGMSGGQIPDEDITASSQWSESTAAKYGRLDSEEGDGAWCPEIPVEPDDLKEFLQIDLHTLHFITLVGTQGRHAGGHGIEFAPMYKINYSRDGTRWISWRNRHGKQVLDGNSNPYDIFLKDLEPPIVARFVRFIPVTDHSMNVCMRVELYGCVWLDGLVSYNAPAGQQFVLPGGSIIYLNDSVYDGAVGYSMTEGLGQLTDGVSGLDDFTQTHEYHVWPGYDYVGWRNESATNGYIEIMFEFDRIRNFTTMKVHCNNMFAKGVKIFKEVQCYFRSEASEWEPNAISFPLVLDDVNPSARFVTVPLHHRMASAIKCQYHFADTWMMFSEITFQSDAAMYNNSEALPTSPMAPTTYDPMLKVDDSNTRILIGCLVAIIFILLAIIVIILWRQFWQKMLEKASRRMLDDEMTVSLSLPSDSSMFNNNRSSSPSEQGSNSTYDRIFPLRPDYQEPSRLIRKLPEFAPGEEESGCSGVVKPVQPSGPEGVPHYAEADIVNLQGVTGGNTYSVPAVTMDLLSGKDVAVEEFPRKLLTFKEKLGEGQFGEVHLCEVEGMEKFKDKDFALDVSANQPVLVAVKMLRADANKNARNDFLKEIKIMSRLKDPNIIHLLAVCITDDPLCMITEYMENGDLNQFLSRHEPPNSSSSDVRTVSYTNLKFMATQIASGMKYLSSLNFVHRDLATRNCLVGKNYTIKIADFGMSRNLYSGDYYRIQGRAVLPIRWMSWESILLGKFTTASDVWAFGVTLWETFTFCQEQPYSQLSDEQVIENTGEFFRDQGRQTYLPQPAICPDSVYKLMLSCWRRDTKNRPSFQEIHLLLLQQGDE
TIE2, sequence (Q02763 23-1124): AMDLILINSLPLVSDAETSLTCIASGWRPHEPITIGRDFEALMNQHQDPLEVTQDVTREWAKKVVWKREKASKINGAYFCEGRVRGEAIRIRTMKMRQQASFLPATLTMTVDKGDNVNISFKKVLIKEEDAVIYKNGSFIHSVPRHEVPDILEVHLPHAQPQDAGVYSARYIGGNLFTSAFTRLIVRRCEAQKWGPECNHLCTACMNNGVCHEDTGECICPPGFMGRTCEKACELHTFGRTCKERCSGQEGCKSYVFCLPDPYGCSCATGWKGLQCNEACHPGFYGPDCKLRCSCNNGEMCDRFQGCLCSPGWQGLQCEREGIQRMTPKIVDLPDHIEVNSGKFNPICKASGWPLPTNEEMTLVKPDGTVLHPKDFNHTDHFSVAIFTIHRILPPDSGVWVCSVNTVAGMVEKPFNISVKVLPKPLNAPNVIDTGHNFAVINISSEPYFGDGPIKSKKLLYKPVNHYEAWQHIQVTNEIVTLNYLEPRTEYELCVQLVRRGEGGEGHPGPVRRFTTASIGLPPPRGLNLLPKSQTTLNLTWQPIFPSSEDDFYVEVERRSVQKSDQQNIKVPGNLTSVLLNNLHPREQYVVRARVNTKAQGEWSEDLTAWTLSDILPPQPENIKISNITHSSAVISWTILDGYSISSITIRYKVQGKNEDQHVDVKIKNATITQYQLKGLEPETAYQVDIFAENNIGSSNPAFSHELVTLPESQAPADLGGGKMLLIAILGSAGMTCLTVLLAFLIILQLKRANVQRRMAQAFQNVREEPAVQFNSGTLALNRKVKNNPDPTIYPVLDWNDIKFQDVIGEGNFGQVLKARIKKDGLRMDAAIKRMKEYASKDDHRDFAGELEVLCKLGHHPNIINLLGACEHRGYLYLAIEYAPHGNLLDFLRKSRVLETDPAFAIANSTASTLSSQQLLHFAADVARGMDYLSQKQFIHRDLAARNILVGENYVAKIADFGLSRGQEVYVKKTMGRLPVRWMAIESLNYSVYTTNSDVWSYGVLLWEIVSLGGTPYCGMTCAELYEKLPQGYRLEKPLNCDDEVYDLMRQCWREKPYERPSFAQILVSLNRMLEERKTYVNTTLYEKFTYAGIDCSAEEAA
EPHB3, sequence (P54753 34-998): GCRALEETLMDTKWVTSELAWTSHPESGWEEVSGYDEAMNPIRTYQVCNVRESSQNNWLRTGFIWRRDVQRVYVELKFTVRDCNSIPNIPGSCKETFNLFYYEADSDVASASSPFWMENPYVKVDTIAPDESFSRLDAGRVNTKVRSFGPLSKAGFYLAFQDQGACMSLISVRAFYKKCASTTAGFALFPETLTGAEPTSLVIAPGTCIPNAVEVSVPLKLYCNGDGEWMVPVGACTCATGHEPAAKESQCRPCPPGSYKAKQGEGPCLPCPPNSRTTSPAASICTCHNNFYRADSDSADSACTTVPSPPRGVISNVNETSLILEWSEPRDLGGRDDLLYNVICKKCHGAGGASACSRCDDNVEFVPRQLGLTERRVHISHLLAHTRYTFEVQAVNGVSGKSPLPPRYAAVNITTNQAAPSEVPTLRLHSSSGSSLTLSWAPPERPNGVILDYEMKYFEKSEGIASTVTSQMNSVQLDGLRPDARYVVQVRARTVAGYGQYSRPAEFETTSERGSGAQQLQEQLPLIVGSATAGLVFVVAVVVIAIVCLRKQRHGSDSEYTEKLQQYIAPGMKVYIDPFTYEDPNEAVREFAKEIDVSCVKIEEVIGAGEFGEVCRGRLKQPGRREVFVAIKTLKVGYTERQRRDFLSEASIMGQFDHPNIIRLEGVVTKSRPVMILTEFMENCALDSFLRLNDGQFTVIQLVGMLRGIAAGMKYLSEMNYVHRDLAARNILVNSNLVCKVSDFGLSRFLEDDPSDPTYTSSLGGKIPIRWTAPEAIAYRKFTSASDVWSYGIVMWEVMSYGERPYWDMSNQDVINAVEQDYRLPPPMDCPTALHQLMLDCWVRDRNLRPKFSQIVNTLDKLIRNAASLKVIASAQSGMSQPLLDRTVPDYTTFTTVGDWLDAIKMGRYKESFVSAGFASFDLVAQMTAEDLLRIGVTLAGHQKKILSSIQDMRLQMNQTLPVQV
T11 sequence (Q8TBX8 whole entry): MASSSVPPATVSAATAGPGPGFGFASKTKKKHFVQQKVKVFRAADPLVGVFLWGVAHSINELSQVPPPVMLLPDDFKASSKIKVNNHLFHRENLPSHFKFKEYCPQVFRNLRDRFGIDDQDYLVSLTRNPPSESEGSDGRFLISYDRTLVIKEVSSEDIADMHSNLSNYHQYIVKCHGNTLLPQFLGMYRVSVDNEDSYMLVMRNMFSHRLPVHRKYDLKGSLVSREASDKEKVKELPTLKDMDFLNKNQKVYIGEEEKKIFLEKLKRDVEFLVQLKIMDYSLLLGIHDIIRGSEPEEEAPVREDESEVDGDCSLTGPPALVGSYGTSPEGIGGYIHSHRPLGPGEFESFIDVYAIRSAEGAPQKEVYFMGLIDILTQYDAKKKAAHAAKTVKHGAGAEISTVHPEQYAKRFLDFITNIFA
TNK2, sequence (Q07912 whole entry): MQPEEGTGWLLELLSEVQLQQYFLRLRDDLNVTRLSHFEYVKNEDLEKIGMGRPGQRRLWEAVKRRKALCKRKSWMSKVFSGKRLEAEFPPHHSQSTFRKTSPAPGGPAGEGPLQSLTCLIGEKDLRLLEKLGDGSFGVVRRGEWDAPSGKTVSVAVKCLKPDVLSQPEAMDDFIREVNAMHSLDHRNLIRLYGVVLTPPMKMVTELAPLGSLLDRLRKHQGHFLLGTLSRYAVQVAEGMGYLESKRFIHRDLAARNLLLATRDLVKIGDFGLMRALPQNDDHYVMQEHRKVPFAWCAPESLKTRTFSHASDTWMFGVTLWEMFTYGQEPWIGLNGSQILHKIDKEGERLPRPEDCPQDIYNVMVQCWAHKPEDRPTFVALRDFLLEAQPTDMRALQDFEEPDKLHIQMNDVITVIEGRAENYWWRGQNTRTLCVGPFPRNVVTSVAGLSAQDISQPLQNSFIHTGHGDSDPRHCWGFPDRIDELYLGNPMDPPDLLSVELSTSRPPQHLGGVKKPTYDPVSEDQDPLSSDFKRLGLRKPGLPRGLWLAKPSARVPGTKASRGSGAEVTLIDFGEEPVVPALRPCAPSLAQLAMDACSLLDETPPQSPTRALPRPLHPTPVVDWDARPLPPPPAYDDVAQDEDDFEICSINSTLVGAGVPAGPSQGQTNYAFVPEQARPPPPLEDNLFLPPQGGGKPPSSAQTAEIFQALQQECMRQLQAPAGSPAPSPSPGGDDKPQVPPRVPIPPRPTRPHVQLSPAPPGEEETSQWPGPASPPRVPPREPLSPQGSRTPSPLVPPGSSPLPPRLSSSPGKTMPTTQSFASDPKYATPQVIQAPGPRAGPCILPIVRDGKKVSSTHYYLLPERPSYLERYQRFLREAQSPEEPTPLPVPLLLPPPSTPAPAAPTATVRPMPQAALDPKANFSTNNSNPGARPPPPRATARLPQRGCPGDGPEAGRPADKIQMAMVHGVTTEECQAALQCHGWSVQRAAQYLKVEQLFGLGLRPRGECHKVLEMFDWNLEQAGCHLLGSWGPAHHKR
T13 sequence (O60331 whole entry): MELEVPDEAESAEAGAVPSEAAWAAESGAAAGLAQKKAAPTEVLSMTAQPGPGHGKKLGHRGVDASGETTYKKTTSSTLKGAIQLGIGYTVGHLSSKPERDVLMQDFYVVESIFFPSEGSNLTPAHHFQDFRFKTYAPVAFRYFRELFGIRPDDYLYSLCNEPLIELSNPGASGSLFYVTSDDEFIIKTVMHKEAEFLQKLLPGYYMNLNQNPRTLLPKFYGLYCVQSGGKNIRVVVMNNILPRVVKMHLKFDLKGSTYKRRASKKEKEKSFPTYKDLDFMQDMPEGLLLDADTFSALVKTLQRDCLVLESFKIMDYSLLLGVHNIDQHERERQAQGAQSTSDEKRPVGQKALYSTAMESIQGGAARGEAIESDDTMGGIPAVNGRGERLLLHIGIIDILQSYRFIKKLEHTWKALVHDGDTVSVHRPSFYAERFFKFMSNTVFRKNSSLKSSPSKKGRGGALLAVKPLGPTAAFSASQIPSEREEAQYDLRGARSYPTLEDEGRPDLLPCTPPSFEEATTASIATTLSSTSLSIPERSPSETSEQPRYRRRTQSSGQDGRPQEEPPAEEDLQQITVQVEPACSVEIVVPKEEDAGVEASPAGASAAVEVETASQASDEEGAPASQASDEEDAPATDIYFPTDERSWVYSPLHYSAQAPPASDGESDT

Cc1ccc(Nc2ncc3c(n2)N(C)CN(c2cc(NC(=O)c4cccc(C(F)(F)F)c4)ccc2C)C3)cn1 [IA-9, N-(4-methyl-3-(1-methyl-7-((6-methylpyridin-3-yl)amino)-1,4-dihydropyrimido[4,5-d]pyrimidin-3(2H)-yl)phenyl)-3-(trifluoromethyl)benzamide]
remaining binding at 10 µM [1]: 3.8% | remaining binding at 10 µM [2]: 0% | remaining binding at 10 µM [3]: 0.05% | percent of control binding at 10 µM [4]: 0.45% | remaining binding at 10 µM [5]: 9.1% | remaining binding at 10 µM [6]: 0.2% | remaining binding at 10 µM [7]: 2.4% | remaining binding at 10 µM [8]: 0.15% | remaining binding at 10 µM [9]: 3.2% | remaining binding at 10 µM [10]: 0% | remaining binding at 10 µM [11]: 0.1% | remaining binding at 10 µM [12]: 0.9% | remaining binding at 10 µM [13]: 0% | remaining binding at 10 µM [14]: 0.35% | remaining binding at 10 µM [15]: 2.5% | remaining binding at 10 µM [16]: 0.9% | remaining binding at 10 µM [17]: 0.95% | remaining binding at 10 µM [18]: 0% | remaining binding at 10 µM [19]: 0% | remaining binding at 10 µM [20]: 0.35% | remaining binding at 10 µM [21]: 0% | Percent Control [22]: 0.55 % Ctrl | remaining binding at 10 µM [23]: 0.15% | remaining binding at 10 µM [24]: 0.55% | remaining binding at 10 µM [25]: 0.1% | remaining binding at 10 µM [26]: 0.3% | remaining binding at 10 µM [27]: 20% | remaining binding at 10 µM [28]: 5.6% | remaining binding at 10 µM [29]: 0.75% | remaining binding at 10 µM [30]: 4.6% | remaining binding at 10 µM [31]: 0.15% | remaining binding at 10 µM [32]: 10% | remaining binding at 10 µM [33]: 0% | remaining binding at 10 µM [34]: 0.75% | remaining binding at 10 µM [35]: 19% | remaining binding at 10 µM [36]: 0.05% | remaining binding at 10 µM [37]: 21%
